≈ marks a conversion by molar mass, not a printed value. Each block holds one compound with its values, some of them ahead of it. Calls of active or inactive are those of the source. The calls are words filed in the database; no cut-off is given here.
Experiments:
Bacillus subtilis [1] = test: Antibacterial activity against Bacillus subtilis ATCC 49343 assessed as bacterial growth inhibition by CLSI protocol based microbroth dilution method; format: functional
Staphylococcus aureus [2] = test: Antibacterial activity against multidrug-resistant Staphylococcus aureus ATCC BAA-44 assessed as bacterial growth inhibition by CLSI protocol based microbroth dilution method; format: functional
Enterococcus faecium [3] = test: Antibacterial activity against vancomycin-resistant Enterococcus faecium ATCC 700221 assessed as bacterial growth inhibition by CLSI protocol based microbroth dilution method; format: functional
Bacillus subtilis [4] = test: Synergistic antibacterial activity against Bacillus subtilis ATCC 49343 assessed as bacterial growth inhibition in presence of ustusoic-acidB; format: functional
Enterococcus faecium [5] = test: Synergistic antibacterial activity against vancomycin-resistant Enterococcus faecium ATCC 700221 assessed as bacterial growth inhibition in presence of ustusoic-acidB; format: functional
Staphylococcus aureus [6] = test: Synergistic antibacterial activity against multidrug-resistant Staphylococcus aureus ATCC BAA-44 assessed as bacterial growth inhibition in presence of ustusoic-acidB; format: functional
Bacillus subtilis [7] = test: Synergistic antibacterial activity against Bacillus subtilis ATCC 49343 assessed as coefficient of drug interaction in presence of Stromemycin; format: functional
Enterococcus faecium [8] = test: Synergistic antibacterial activity against vancomycin-resistant Enterococcus faecium ATCC 700221 assessed as coefficient of drug interaction in presence of Stromemycin; format: functional
Staphylococcus aureus [9] = test: Synergistic antibacterial activity against multidrug-resistant Staphylococcus aureus ATCC BAA-44 assessed as coefficient of drug interaction in presence of Stromemycin; format: functional
Candida albicans = test: Antifungal activity against Candida albicans ATCC 90027 assessed as fungal growth inhibition by CLSI protocol based microbroth dilution method; format: functional, organism-based
HCT-116 = test: Cytotoxicity against human HCT-116 cells by MTT assay; format: cell-based
Bacillus subtilis [10] = test: Synergistic antibacterial activity against Bacillus subtilis ATCC 49343 assessed as bacterial growth inhibition in presence of Stromemycin; format: functional
Enterococcus faecium [11] = test: Synergistic antibacterial activity against vancomycin-resistant Enterococcus faecium ATCC 700221 assessed as bacterial growth inhibition in presence of Stromemycin; format: functional
Staphylococcus aureus [12] = test: Synergistic antibacterial activity against multidrug-resistant Staphylococcus aureus ATCC BAA-44 assessed as bacterial growth inhibition in presence of Stromemycin; format: functional
Bacillus subtilis [13] = test: Synergistic antibacterial activity against Bacillus subtilis ATCC 49343 assessed as coefficient of drug interaction in presence of ustusoic-acidB; format: functional
Enterococcus faecium [14] = test: Synergistic antibacterial activity against vancomycin-resistant Enterococcus faecium ATCC 700221 assessed as coefficient of drug interaction in presence of ustusoic-acidB; format: functional
Staphylococcus aureus [15] = test: Synergistic antibacterial activity against multidrug-resistant Staphylococcus aureus ATCC BAA-44 assessed as coefficient of drug interaction in presence of ustusoic-acidB; format: functional

MIC99 (Bacillus subtilis [1]): 125 µg/mL (≈ 387 µM)
Compound: O=C(N[C@H](CO)[C@H](O)c1ccc([N+](=O)[O-])cc1)C(Cl)Cl [CHLORAMPHENICOL]

Compound: CN[C@H](CC(C)C)C(=O)N[C@H]1C(=O)N[C@@H](CC(N)=O)C(=O)N[C@H]2C(=O)N[C@H]3C(=O)N[C@H](C(=O)N[C@H](C(=O)O)c4cc(O)cc(O)c4-c4cc3ccc4O)[C@H](O)c3ccc(c(Cl)c3)Oc3cc2cc(c3O[C@@H]2O[C@H](CO)[C@@H](O)[C@H](O)[C@H]2O[C@H]2C[C@](C)(N)[C@H](O)[C@H](C)O2)Oc2ccc(cc2Cl)[C@H]1O [VANCOMYCIN]
MIC (Staphylococcus aureus [2]; read-out: MIC100): 125 µg/mL (≈ 86.3 µM)

Compound: O=C1CN(/N=C/c2ccc([N+](=O)[O-])o2)C(=O)N1 [NITROFURANTOIN]
MIC99 (Enterococcus faecium [3]): 125 µg/mL (≈ 525 µM)

Compound: C/C=C/C=C/C=C/C(=O)O[C@@H]1C=C(CO)[C@](O)(C(=O)O)[C@@]2(C)CCCC(C)(C)[C@H]12
MIC (Staphylococcus aureus [2]; read-out: MIC): > 128 µg/mL
MIC (Enterococcus faecium [3]): 128 µg/mL (≈ 316 µM)
MIC (Bacillus subtilis [1]): 64 µg/mL (≈ 158 µM)

Compound: CCC/C=C/C=C/CCc1cc(OC(=O)c2c(CC/C=C/C=C/CCC)cc(O)c([C@@H]3O[C@H](CO)[C@@H](O)[C@H](O)[C@H]3O)c2O)cc(O)c1C(=O)O
MIC (Staphylococcus aureus [2]; read-out: MIC): > 128 µg/mL
MIC (Enterococcus faecium [3]): > 128 µg/mL
MIC (Bacillus subtilis [1]): 64 µg/mL (≈ 91.8 µM)
MIC (Bacillus subtilis [4]): 8 µg/mL
MIC (Enterococcus faecium [5]): 32 µg/mL
MIC (Staphylococcus aureus [6]): 64 µg/mL
CI (Bacillus subtilis [7]): 0.0009
CI (Enterococcus faecium [8]): 0.00013
CI (Staphylococcus aureus [9]): 0.00014
Activity (Candida albicans): inactive
Activity (HCT-116): Non-Toxic

Compound: C/C=C/C=C/C=C/C(=O)O[C@@H]1C=C(C=O)[C@](O)(C(=O)O)[C@@]2(C)CCCC(C)(C)[C@H]12
MIC (Staphylococcus aureus [2]; read-out: MIC): > 128 µg/mL
MIC (Enterococcus faecium [3]): 67 µg/mL (≈ 166 µM)
MIC (Bacillus subtilis [1]): 38 µg/mL (≈ 94.4 µM)
MIC (Bacillus subtilis [10]): 8 µg/mL
MIC (Enterococcus faecium [11]): 32 µg/mL
MIC (Staphylococcus aureus [12]): 64 µg/mL
CI (Bacillus subtilis [13]): 0.0009
CI (Enterococcus faecium [14]): 0.00013
CI (Staphylococcus aureus [15]): 0.00014
Activity (Candida albicans): inactive
Activity (HCT-116): Non-Toxic

From ChEMBL document CHEMBL4813925, “Antibacterial Drimane Sesquiterpenes from Aspergillus ustus” (J Nat Prod, 2021)
